Measurements as given in PubChem BioAssay (NCI).
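How tested: cells in 96-well plates exposed to compound for 48 hours at five concentrations. GI50 = concentration required for 50% inhibition of growth. At the TGI there is no net growth.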

What was measured:
Assay in all cases: growth of human tumour cells (NCI), 48 h
[1] = system: 786-0 renal
[2] = system: A498 renal
[3] = system: A549 NSCLC
[4] = system: ACHN renal
[5] = system: BT-549 breast
[6] = system: CAKI-1 renal
[7] = system: CCRF-CEM leukemia
[8] = system: COLO 205 colon
[9] = system: DU-145 prostate
[10] = system: EKVX NSCLC
[11] = system: HCC-2998 colon
[12] = system: HCT-116 colon
[13] = system: HCT-15 colon
[14] = system: HL-60(TB) leukemia
[15] = system: HOP-62 NSCLC
[16] = system: HOP-92 NSCLC
[17] = system: HS 578T breast
[18] = system: HT29 colon
[19] = system: IGROV1 ovarian
[20] = system: K-562 leukemia
[21] = system: KM12 colon
[22] = system: LOX IMVI melanoma
[23] = system: M14 melanoma
[24] = system: MALME-3M melanoma
[25] = system: MCF7 breast
[26] = system: MDA-MB-231 breast
[27] = system: MDA-MB-435
[28] = system: MDA-MB-468 breast
[29] = system: MOLT-4 leukemia
[30] = system: NCI-H226 lung
[31] = system: NCI-H23 lung
[32] = system: NCI-H460 lung
[33] = system: NCI-H522 lung
[34] = system: NCI/ADR-RES ovarian
[35] = system: OVCAR-3 ovarian
[36] = system: OVCAR-4 ovarian
[37] = system: OVCAR-5 ovarian
[38] = system: OVCAR-8 ovarian
[39] = system: PC-3 prostate
[40] = system: RPMI-8226 leukemia
[41] = system: RXF 393 renal
[42] = system: SF-268 CNS
[43] = system: SF-295 CNS
[44] = system: SF-539 CNS
[45] = system: SK-MEL-2 melanoma
[46] = system: SK-MEL-28 melanoma
[47] = system: SK-MEL-5 melanoma
[48] = system: SK-OV-3 ovarian
[49] = system: SN12C renal
[50] = system: SNB-19 CNS
[51] = system: SNB-75 CNS
[52] = system: SR leukemia
[53] = system: SW-620 colon
[54] = system: T-47D breast
[55] = system: TK-10 renal
[56] = system: U251 CNS
[57] = system: UACC-257 melanoma
[58] = system: UACC-62 melanoma
[59] = system: UO-31 renal

Clc1cccc(N/N=C/c2c[nH]c3ccccc23)n1
GI50 [1]: 11.1 µM | TGI [1]: 24.2 µM | GI50 [2]: 18.7 µM | TGI [2]: 34 µM | GI50 [3]: 13.2 µM | TGI [3]: 38.2 µM | GI50 [4]: 10.5 µM | TGI [4]: 33.6 µM | GI50 [5]: 0.245 µM | TGI [5]: 11 µM | GI50 [6]: 2.23 µM | TGI [6]: 19.1 µM | GI50 [7]: 0.307 µM | TGI [7]: 19.4 µM | GI50 [8]: 13.8 µM | TGI [8]: 28.8 µM | GI50 [9]: 13 µM | TGI [9]: 26 µM | GI50 [10]: 1.97 µM | TGI [10]: 16.8 µM | GI50 [11]: 12 µM | TGI [11]: 24.6 µM | GI50 [12]: 12.1 µM | TGI [12]: 25.2 µM | GI50 [13]: 8.1 µM | TGI [13]: 21.5 µM | GI50 [14]: 1.28 µM | TGI [14]: 13.9 µM | GI50 [15]: 10 µM | TGI [15]: 22.3 µM | GI50 [16]: 5.32 µM | TGI [16]: 20.7 µM | GI50 [17]: 4.17 µM | TGI [17]: 27.8 µM | GI50 [18]: 15 µM | TGI [18]: 31.8 µM | GI50 [19]: 1.37 µM | TGI [19]: 6.92 µM | GI50 [20]: 1.94 µM | TGI [20]: 41 µM | GI50 [21]: 9.78 µM | TGI [21]: 26.9 µM | GI50 [22]: 3.32 µM | TGI [22]: 17 µM | GI50 [23]: 11.9 µM | TGI [23]: 25.4 µM | GI50 [24]: 7.33 µM | TGI [24]: 20.8 µM | GI50 [25]: 2.67 µM | TGI [25]: 16.4 µM | GI50 [26]: 1.37 µM | TGI [26]: 9.57 µM | GI50 [27]: 2.46 µM | TGI [27]: 12 µM | GI50 [28]: 1.89 µM | TGI [28]: 5.01 µM | GI50 [29]: 1.55 µM | TGI [29]: 21.9 µM | GI50 [30]: 1.65 µM | TGI [30]: 17.2 µM | GI50 [31]: 12.5 µM | TGI [31]: 26.3 µM | GI50 [32]: 11.5 µM | TGI [32]: 28.8 µM | GI50 [33]: 1.03 µM | TGI [33]: 12.4 µM | GI50 [34]: 2.98 µM | TGI [34]: 16.5 µM | GI50 [35]: 3.85 µM | TGI [35]: 19.3 µM | GI50 [36]: 10.5 µM | TGI [36]: 29 µM | GI50 [37]: 11 µM | TGI [37]: 23.7 µM | GI50 [38]: 8.12 µM | TGI [38]: 21 µM | GI50 [39]: 2.98 µM | TGI [39]: 26.6 µM | GI50 [40]: 0.83 µM | TGI [40]: 14.5 µM | GI50 [41]: 2.84 µM | TGI [41]: 18.1 µM | GI50 [42]: 2.99 µM | TGI [42]: 25.9 µM | GI50 [43]: 11.4 µM | TGI [43]: 23.5 µM | GI50 [44]: 1.47 µM | TGI [44]: 11.9 µM | GI50 [45]: 12.9 µM | TGI [45]: 25.9 µM | GI50 [46]: 14.5 µM | TGI [46]: 27.6 µM | GI50 [47]: 8.61 µM | TGI [47]: 21 µM | GI50 [48]: 2.39 µM | TGI [48]: 16.8 µM | GI50 [49]: 2.28 µM | TGI [49]: 11.7 µM | GI50 [50]: 12.7 µM | TGI [50]: 30.8 µM | GI50 [51]: 0.141 µM | TGI [51]: 5 µM | GI50 [52]: 2.93 µM | TGI [52]: 19.3 µM | GI50 [53]: 13.3 µM | TGI [53]: 28 µM | GI50 [54]: 4.04 µM | TGI [54]: 19 µM | GI50 [55]: 19.5 µM | TGI [55]: 42.3 µM | GI50 [56]: 10.7 µM | TGI [56]: 25.8 µM | GI50 [57]: 11.6 µM | TGI [57]: 24 µM | GI50 [58]: 10.3 µM | TGI [58]: 22 µM | GI50 [59]: 1.21 µM | TGI [59]: 14.1 µM

OC(c1ccccc1)(c1ccccc1)C1CCN(c2ccc3nnc(Cl)n3n2)CC1
GI50 [1]: 25 µM | TGI [1]: 71.8 µM | GI50 [2]: 16.8 µM | TGI [2]: 32.6 µM | GI50 [3]: 18 µM | TGI [3]: > 100 µM | GI50 [4]: 14.2 µM | TGI [4]: 44.8 µM | GI50 [5]: 13.9 µM | TGI [5]: 29.8 µM | GI50 [6]: 15.6 µM | TGI [6]: 81.3 µM | GI50 [7]: 12.8 µM | TGI [7]: > 100 µM | GI50 [8]: 18.3 µM | TGI [8]: 46.2 µM | GI50 [9]: 24 µM | TGI [9]: > 100 µM | GI50 [10]: 15.5 µM | TGI [10]: 54.3 µM | GI50 [11]: 15.5 µM | TGI [11]: 29.9 µM | GI50 [12]: 14.1 µM | TGI [12]: 39.1 µM | GI50 [13]: 15.7 µM | TGI [13]: 54.2 µM | GI50 [14]: 12.7 µM | TGI [14]: 42.9 µM | GI50 [15]: 44 µM | TGI [15]: > 100 µM | GI50 [16]: 10.8 µM | TGI [16]: 29 µM | GI50 [17]: 22 µM | TGI [17]: 53.2 µM | GI50 [18]: 16.9 µM | TGI [18]: 36.4 µM | GI50 [19]: 16.4 µM | TGI [19]: 41.9 µM | GI50 [20]: 14 µM | TGI [20]: > 100 µM | GI50 [21]: 16.2 µM | TGI [21]: 42.5 µM | GI50 [22]: 15.3 µM | TGI [22]: 29 µM | GI50 [23]: 17.4 µM | TGI [23]: 34.9 µM | GI50 [24]: 19.5 µM | TGI [24]: 33.9 µM | GI50 [25]: 16.2 µM | TGI [25]: 44.2 µM | GI50 [26]: 15.4 µM | TGI [26]: 30.4 µM | GI50 [27]: 19.5 µM | TGI [27]: 43.3 µM | GI50 [28]: 13 µM | TGI [28]: 35.4 µM | GI50 [29]: 4.18 µM | TGI [29]: 31.6 µM | GI50 [30]: 14.5 µM | TGI [30]: 38.9 µM | GI50 [31]: 16.8 µM | TGI [31]: 37.3 µM | GI50 [32]: 14.1 µM | TGI [32]: 32.6 µM | GI50 [33]: 15.6 µM | TGI [33]: 49.1 µM | GI50 [34]: 18 µM | TGI [34]: 63.3 µM | GI50 [35]: 21.1 µM | TGI [35]: 65.7 µM | GI50 [36]: 23.2 µM | TGI [36]: > 100 µM | GI50 [37]: 17.5 µM | TGI [37]: 45.2 µM | GI50 [38]: 25.7 µM | TGI [38]: 76.9 µM | GI50 [39]: 8.75 µM | TGI [39]: 62.2 µM | GI50 [40]: 9.29 µM | TGI [40]: 50.8 µM | GI50 [41]: 14.5 µM | TGI [41]: 29.4 µM | GI50 [42]: 26.3 µM | TGI [42]: > 100 µM | GI50 [43]: 17 µM | TGI [43]: 54.1 µM | GI50 [44]: 17.2 µM | TGI [44]: 38.7 µM | GI50 [45]: 16.5 µM | TGI [45]: 32.8 µM | GI50 [46]: 18.3 µM | TGI [46]: 43 µM | GI50 [47]: 13.7 µM | TGI [47]: 26.6 µM | GI50 [48]: 42.1 µM | TGI [48]: > 100 µM | GI50 [49]: 17.5 µM | TGI [49]: 40 µM | GI50 [50]: 36.3 µM | TGI [50]: > 100 µM | GI50 [51]: 14.6 µM | TGI [51]: 36.9 µM | GI50 [52]: 10.9 µM | TGI [52]: 47.5 µM | GI50 [53]: 25 µM | TGI [53]: 67.8 µM | GI50 [54]: 20.6 µM | TGI [54]: > 100 µM | GI50 [55]: 22.9 µM | TGI [55]: 62.5 µM | GI50 [56]: 18 µM | TGI [56]: 39.6 µM | GI50 [57]: 18.5 µM | TGI [57]: 37.9 µM | GI50 [58]: 14.6 µM | TGI [58]: 30.4 µM | GI50 [59]: 11 µM | TGI [59]: 29.1 µM
